The record followed here is patent US20250073234A1, “COMBINATION THERAPIES INCLUDING PARP1 INHIBITORS” (Cornell University, priority 2022, published 2025).

Assay [1] relates to c-FOS and c-JUN at the AP-1A site of the SQSTM1 promoter. Nature of the assay: ChIP-PCR of SQSTM1 promoter (AP-1A) occupancy in WPMY-1 cells. It counts as cell-based, human. The settings on record: 48 h. The protocol:
WPMY-1 cells were fixed by adding directly to the culture medium formaldehyde (HCHO; from a 37% HCHO-10% methanol stock, Calbiochem) to a final concentration of 1%. […] Chromatin was sheared in a COVARIS S220 Focused-ultrasonicator to yield DNA fragment sizes of 200-1000 base pairs, and diluted 10 times in dilution buffer (20 mM Tris pH 8.0, 2 mM EDTA, 1% triton X-100, 150 mM NaCl and protease inhibitors). Immunoprecipitations were carried out overnight at 4° C. using the following protein A-antibodies complexes: cFOS, FOSB, cJUN, JUNB.
Immunocomplexes were washed three times with buffer TSEI (20 mM Tris pH 8.0, 2 mM EDTA, 1% triton X-100, 150 mM NaCl, 0.1% SDS and protease inhibitors), three washes with buffer TSEII (20 mM Tris pH 8.0, 2 mM EDTA, 1% triton X-100, 500 mM NaCl, 0.1% SDS and protease inhibitors), one wash with buffer TSEIII (10 mM Tris pH 8.0, 250 mM LiCl, 1 mM EDTA, 1% NP40, 1% Deoxycholate and protease inhibitors) and one wash with TE pH 8.0.
Immunocomplexes were extracted in TE containing 1% SDS, and protein-DNA cross-links were reverted by heating at 65° C. overnight. DNA was extracted by using a PCR purification kit (Qiagen). One-tenth of the immunoprecipitated DNA was used in each PCR, for which the promoter-specific primers were used.

Assay [2] deals with PC3^GFP cells. In words: Survival of GFP-labeled PC3 cells alone or co-cultured with WPMY-1 cells. It counts as cell-based, human. The settings on record: Olaparib 5 μM, 10 days, basal and ADT. The protocol:
Co-culture assays were performed as described previously (Valencia et al., 2014). Briefly, stromal cells were seeded in TC-treated 6-well plates and allowed to attach for 6 hours before PCa cells were seeded on top of Milicell Cell Culture Inserts (Millipore). Inserts were then placed in the pre-seeded 6-well plate. For co-culture experiments of PC3-GFP label with WPMY-1 cells, 500 PC3 and 1000 WPMY-1 were seeded in a 96 well plate in DMEN containing 10% FBS (basal conditions) or 10% charcoal stripped FBS (ADT conditions) and vehicle (DMSO) or Olaparib 5 μM for 10 days. Media and treatments were refresh every 48 hours. Pictures were taken using EVOS M5000 Imaging System and GFP positive were measured using Fiji (Schindelin et al., 2012).

In assay [3] the test system is WPMY-1 cells. Nature of the assay: ATAC-seq chromatin accessibility in WPMY-1 cells. In kind it is cell-based, human. The settings on record: Olaparib-treated WPMY-1 cells, 96 h. The method, then:
The cell pellet was resuspended in 50 μl lysis buffer and then spun down 500×g for 10 minutes at 4° C. The nuclei pellet was resuspended into 50 μl transposition reaction mixture containing Tn5 transposase from Nextera DNA Library Prep Kit (Illumina) and incubated at 37° C. for 30 minutes. Then the transposase-associated DNA was purified using MinElute PCR purification kit (QIAGEN). To amplify the library, the DNA was first amplified for 5 cycles using indexing primer from Nextera kit and NEBNext High-Fidelity 2×PCR master mix. To reduce the PCR amplification bias, 5 μl of amplified DNA after the first 5 cycles was used to do qPCR of 20 cycles to decide the number of cycles for the second round of PCR. Usually, the maximum cycle of the second round of PCR is 5 cycles. Then the total amplified DNA was size selected to fragments less than 800 bp using SPRI beads. Quantification of the ATAC-seq library was done with QuBit. The size of the pooled library was examined by TapeStation. Barcoded ATAC-seq libraries were pooled and paired end sequenced (sX75) on the Illumina NextSeq 500 using the High output V2.5 kit (Illumina Inc., San Diego, CA).
Peaks were annotated with ChipSeeker R package. […].

Assay [4] relates to RM1-BoMe3 cells on femur pieces. In words: Bone-in-culture array (BICA) with RM1-BoMe3 cells. The settings on record: bone pre-treated with Olaparib 20 μM 48 h, ADT conditions. In kind it is cell-based, mouse. The method, then:
8-week-old C57B16 male mice were euthanized, and lower limb bone were collected. Femur epiphyses were dissected and fragmented in 4 pieces by sterilized micro dissecting scissors. Bone pieces were aligned into low-attachment 96-well plates pre-loaded with 200 μL DMEM/F12 supplemented with 5% charcoal striped FBS for ADT conditions. Bone pieces were treated with DMSO or Olaparib 20 μM for 48 h and then 5000 RM1-BoMe3-RFP-Luc cells were seed on top of the bone pieces. After 48 hours, pictures were taken using EVOS M5000 Imaging System and RFP^+ positive areas were measured using Fiji.

The test system of assay [5] is RM1-BoMe3 metastases. Nature of the assay: Caudal artery injection RM1-BoMe3 metastasis model. In kind it is in vivo, mouse. The settings on record: Olaparib 40 mg/kg i.p., 3 weeks. The protocol: Tissues from indicated mice were isolated, fixed in zinc buffered formalin overnight at 4° C., dehydrated, and embedded in paraffin. Sections (5 μm) were stained with hematoxylin and eosin (H&E). For immunohistochemistry, sections were deparaffinized, rehydrated, and then treated for antigen retrieval. After blocking in Protein Block Serum-Free solutions (DAKO), tissues were incubated with primary antibody overnight at 4° C. followed by incubation with biotinylated secondary antibody. Endogenous peroxidase was quenched in 3% H2O2 in water for 10 minutes at room temperature. Antibodies were visualized with avidin-biotin complex (Vectastain Elite; Vector Laboratories) using diaminobenzidine as the chromogen. Stained sections were analyzed with a Zeiss light microscope supplemented with Zen 3.3 Bule edition software.
For the metastasis model, caudal artery injection was performed with 500000 RM1-BoMe3-RFP-Luc prostate cancer epithelial cells in 150 μl of PBS n=10 in 8-week-old C57B16 male mice. After 1-week luciferase was visualized using IVIS to detect signal in the lower limbs and in less frequently in visceral organs, mice with signal were randomly distributed to receive vehicle, n=5, or Olaparib n=5 (40 mg/kg/, 5 days each, i.p.). After 3 weeks, mice were euthanized and ex-vivo IVIS was performed in lower limbs, vertebrae, and visceral organs to detect metastasis sites. Tissues were collected and analyzed histologically.

Assay [6] concerns PC3 cells. Nature of the assay: Trans-well migration and invasion of PC3 cells co-cultured with pre-treated WPMY-1 cells. It counts as cell-based, human. The settings on record: co-culture with Olaparib-pretreated WPMY-1, 20 h, basal and ADT. The protocol: For co-culture migration and invasion assays, 8×10^4 WPMY-1 cells were plated onto the lower chamber of a 24 well plate in DMEN containing 10% FBS (basal conditions) or 10% charcoal stripped FBS (ADT conditions) and vehicle (DMSO) or Olaparib 10 μM or Olaparib 10 μM+PEGPH20 2.5 μg/ml for 48 hours. 5×10^4 PC3 were seeded in a transwell chamber (Corning Biocoat control inserts) or in a transwell invasion chamber (Corning BioCoat Matrigel Invasion Chambers), both with 8 μm membrane. PC3 were allowed to migrate or invade for 20 hours at 37° C., 5% CO2. Cells were fixed in cold methanol and stained with crystal violet.

Turning to `NC(=O)c1ccc[n+]([C@@H]2O[C@H](COP(=O)([O-])OP(=O)(O)OC[C@H]3O[C@@H](n4cnc5c(N)ncnc54)[C@H](O)[C@@H]3O)[C@@H](O)[C@H]2O)c1` [NAD^+], the “recruitment of c-FOS and c-JUN to the AP-1 regulatory site in lactate-treated cells” value in assay [1] (added to lactate-treated WPMY-1 cells) is “rescued”.
Regarding `O=C(c1cc(Cc2n[nH]c(=O)c3ccccc23)ccc1F)N1CCN(C(=O)C2CC2)CC1` [Olaparib], the “sensitivity of PC3^GFP cells to Olaparib, co-culture vs monoculture” value in assay [2] is recorded as “more resistant to Olaparib”. For the same molecule, the chromatin accessibility entry in assay [3] is recorded as “strong decrease in chromatin accessibility across the genome”. In addition, the results for the “seeding of cancer cells onto the bone (RFP+ area)” value in assay [4] and in assay [4] (listed as Ola) were “increased tumor homing of RM1-BoMe3” and “significantly increased the seeding of cancer cells onto the bone”, respectively. The “HA deposition in liver metastasis (IHC)” value in assay [5] is on record as “increased HA deposition in Olaparib-treated liver metastasis”; in assay [5] (listed as Ola) it was “deposition of HA was observed”. The “TGFβ signaling in bone metastasis (nuclear pSMAD2)” value in assay [5] is recorded as “increased pSMAD2 staining in bone metastasis”; in assay [5] (listed as Ola) it was “increased activation of TGFβ signaling”. Further, in assay [6], the “migration and invasion of PC3 cells” value was “increased migration and invasion of PCa cells”. In addition, the “recruitment of c-FOS and c-JUN to the AP-1A binding site in the SQSTM1 promoter” value in assay [1] (Olaparib 20 μM) was “impaired the recruitment of c-FOS and c-JUN”.
